Test [1] can be described thus: Induction of diabetes by streptozotocin. The class given is in vivo, rat. Particulars: three days following STZ injection, 55 mg·kg^−1 i.v., mean ± SEM. An excerpt:
In order to induce diabetes, male Wistar rats (n=28, 303±2.9 g) were divided randomly into diabetic and nondiabetic groups. […] Nondiabetic animals received an equivalent volume of saline. […] Blood glucose and body weight were measure at day 3 following STZ/saline injection and then weekly throughout the study. Diabetes was identified by polydipsia, polyuria and hyperglycemia (>11 mmol·l^−1, Advantage II, Roche Diagnostics, NZ Ltd).

For test [2] the following is noted: reported, Kodama et al. 1997; cited from earlier work.

Regarding `CN(N=O)C(=O)N[C@H]1C(O)O[C@H](CO)[C@@H](O)[C@@H]1O` (mixture of isomers) [STZ, streptozotocin], the Blood glucose in test [1] is 25 ± 2 mmol/L.

`CC(=O)NCCNCCNCCN.Cl` [N-acetyl-trientine hydrochloride]: in test [2], the “Chelating activity compared with trientine dihydrochloride” value is “significantly lower”.

Source of the values: US10543178B2, “Dosage forms and related therapies” (PhilERA New Zealand Limited, priority 2002, dated 2020).
